Laboratory results taken from patent US20180289655A1, “Methods and Compositions for the Intravenous Administration of Fumarates for the Treatment of Neurological Diseases” (Biogen MA Inc., priority 2015, published 2018).
Structures can show the parent of a compound that is named as a salt.

Tests used:
[1] = system: blood cell populations; assay: Complete blood count (CBC) with differential after IV dosing; format: in vivo, C57BL/6 mice
Method: Whole blood samples (250 μL) were collected in EDTA tubes at indicated time points after dosing, and were maintained at 4° C. until analysis for CBC with differential at Charles River Laboratories (analyzed within 24-36 hours from time of collection).
Statistical analyses on blood cell fractions were not completed due to the overall variability and low number of replicates for the samples in this pilot study.
A CBC with differential panel was performed at 10 minutes post-last dose via facial vein bleeding, and at 2 hours after the last dose, pharmacodynamic Nrf2 transcriptional responses were analyzed in tissues from the same animals. Histopathology was also performed on regions of the tail in a pilot toxicology study.

[2] = system: malonate-induced striatal lesion in rats; assay: Malonate-induced striatal lesion volume (cytochrome oxidase histochemistry), oral DMF; format: in vivo, Sprague-Dawley rats
Method: Two separate experiments were conducted and are reported here.
Rats were anesthetized under Bupivacaine (2 mg/kg), Brevital (50 mg/kg, i.p.) and isoflurane anesthesia, placed in a stereotaxic frame and prepared for intrastriatal injection. A single injection of malonate was injected at a single site in the left striatum corresponding to stereotaxic coordinates at AP: […] from bregma; Lateral: 2.8 mm from midline; DV: −5.5 mm from surface of the skull at bregma. Malonate (in saline) was injected at a dose of 2.0 μmols in 2.0 μl over 4 minutes using a syringe pump. The injection needle was left in place for an additional 1.0 min following the infusion and was withdrawn slowly to minimize reflux of the infusate up the needle tract. Rats were kept warm on a heating pad until waking from anesthesia (Green and Greenamyre, 1995).
Three (Experiment 1) or four (Experiment 2) days after the malonate injection and 30 min after the last dose, all animals were sacrificed by CO2, and their brains were quickly removed and stored in 20% sucrose in PBS for at least 1 hour, then transfer them to 30% sucrose in PBS overnight. On next day, all brains were embedded in OCT and stored in −80° C. The first experiment included three treatment groups: vehicle, 30 mg/kg and 100 mg/kg, and the second experiment included four treatment groups: vehicle, 50 mg/kg, 75 mg/kg and 100 mg/kg.
Incubation medium consisted of 200 mg cytochrome C and 200 mg of 3, 3′-Diaminobenzidine tetrahydrochloride (DAB) in 500 ml of 0.1 M phosphate buffer, pH 7.4. Slides were incubated for 90 minutes at 37° C. and wash twice with PBS (2-5 min.), then removed to 4% neutral, buffered, paraformaldehyde for 20 minutes. Sections were rinsed twice with PBS (2-5 min.), then twice with distilled water (2-5 min.), dehydrated, cleared in xylene, and coverslipped.
The lesion area on each section was quantified using Open-Lab Image Analysis System. Sections were taken throughout the entire striatum and a total of twenty 25 μm sections were analyzed for each rat. Area measurements were summed and multiplied by intersectional distance (200 μm) to determine the lesion volume for each subject.
Data for lesion volume was analyzed by one way analysis of variance (ANOVA) followed by a Tukey's test to assess differences between the treatment and vehicle groups.

[3] = Solubility of DMF in HPbCD, Captisol, saline and D5W at ambient temperature; format: physicochemical; settings: thermodynamic from solid
Method: Solubility of DMF in these media was determined at ambient temperature by preparing a saturated solution.

[4] = Study 3, DMF IV 30 mg/kg once daily x5
[5] = Study 3, DMF IV 30 mg/kg once daily x5, vs vehicle

With COC(=O)/C=C/C(=O)OC [DMF, dimethyl fumarate] the “Reduction in white blood cell counts (neutrophils, lymphocytes, monocytes, eosinophils, basophils)” value ([1]; Study 2, single IV dose DMF 30 mg/kg or MMF 27.08 mg/kg, 2-hour time point) was “did not specifically coincide with DMF or MMF treatment”, the “Effect on red blood cells, hemoglobin, hematocrit, mean corpuscular volume, platelets” value ([1]; Study 2, single IV dose DMF 30 mg/kg or MMF 27.08 mg/kg, 10 minutes, 2 and 6 hours) was “no effect on red blood cells, hemoglobin, hematocrit, mean corpuscular volume, or platelets” and the “Effect on red blood cells, hemoglobin, hematocrit, mean corpuscular volume, platelets” value [1, 4] was “no effects on red blood cells, hemoglobin, hematocrit, mean corpuscular volume, or platelets”. The White blood cells [1, 4] was “general reduction in white blood cells”, the Decrease in lymphocytes [1, 5] was 38% and the Decrease in monocytes [1, 5] was 60%. For the same compound, the “Reduction of malonate induced lesion volume” value ([2]; Experiment 1, DMF 100 mg/kg oral daily, n=7 per group) was 55%, the “Reduction of malonate-induced lesion volume” value ([2]; Experiment 2, DMF 75 mg/kg oral daily) was 44% and the “Reduction of malonate-induced lesion volume” value ([2]; Experiment 2, DMF 100 mg/kg oral daily) was 61%. For the same compound, the “Reduction of malonate-induced lesion volume” value ([2]; both experiments, DMF 100 mg/kg oral daily) was “at least 55%”, the solubility at 24 h ([3]; aqueous with cosolvent or surfactant or cyclodextrin, 40% Captisol, pH 4.42) was 7900 µg/mL and the solubility at 24 h ([3]; pH 3.9, aqueous with cosolvent or surfactant or cyclodextrin, 40% HPbCD, pH 3.90) was 15100 µg/mL. It also gave a solubility at 24 h ([3]; pH 4.3, aqueous with cosolvent or surfactant or cyclodextrin, 5% HPbCD, pH 4.30) of 4030 µg/mL, a solubility at 24 h ([3]; pH 4.8, aqueous with cosolvent or surfactant or cyclodextrin, 5% Captisol, pH 4.80) of 3180 µg/mL and a solubility at 24 h ([3]; saline or isotonic, D5W (5% Dextrose in water), pH 6.32) of 2390 µg/mL. The solubility at 24 h ([3]; saline or isotonic, Saline (0.9% NaCl), pH 6.67) was 2080 µg/mL.
